Experimental findings from patent publication US11987578B1, “7-(4-((5-(2-chlorobenzylideneamino)-2-thioxo-1,3,4-thiadiazol-3(2H)-yl)methyl)piperazin-1-yl)-1-cyclopropyl-6-fluoro-4-oxo-1,4-dihydroquinoline-3-carboxylic acid as an anti-inflammatory compound” (KING FAISAL UNIVERSITY, priority 2023, dated 2024) are described below.

The target in one data set is Bovine Serum Albumin (Bos taurus, UniProt P02769). The data set can be described thus: Bovine Serum Albumin Assay (BSA), inhibition of heat-induced protein denaturation. Format: biochemical. The method, then: Bovine Serum Albumin Assay (BSA) In vitro-inflammatory activities of the tested samples were determined using a modified method of the BSA assay reported by Williams et al. BSA solution (0.4%, w/v) was prepared in Tris Buffered Saline. The pH was adjusted to 6.4 with glacial acetic acid. Different dilutions of 20, 40, 60, 80, and 100 μg/mL of 7-(4-((5-(2-chlorobenzylideneamino)-2-thioxo-1,3,4-thiadiazol-3(2H)-yl)methyl)piperazin-1-yl)-1-cyclopropyl-6-fluoro-4-oxo-1,4-dihydroquinoline-3-carboxylic acid stock solutions were added to test tubes containing 1 mL of 0.4%, w/v BSA buffer solution. Both negative (solvent) and positive (aspirin) controls were assayed in a similar manner. The solutions were then heated in a water bath at 72° C. for 10 minutes and cooled for 20 minutes under laboratory conditions. The turbidity of the solutions (level of protein precipitation) was measured at 660 nm in Spectrophotometer (V-770 UV-Visible/NIR Spectrophotometer). The percentage inhibition of precipitation (protein denaturation) was determined relative to the negative control using the following equation: [formula]

Where two headings read alike, the source gives them in different places.

Chain of Bovine Serum Albumin (P02769 25-607): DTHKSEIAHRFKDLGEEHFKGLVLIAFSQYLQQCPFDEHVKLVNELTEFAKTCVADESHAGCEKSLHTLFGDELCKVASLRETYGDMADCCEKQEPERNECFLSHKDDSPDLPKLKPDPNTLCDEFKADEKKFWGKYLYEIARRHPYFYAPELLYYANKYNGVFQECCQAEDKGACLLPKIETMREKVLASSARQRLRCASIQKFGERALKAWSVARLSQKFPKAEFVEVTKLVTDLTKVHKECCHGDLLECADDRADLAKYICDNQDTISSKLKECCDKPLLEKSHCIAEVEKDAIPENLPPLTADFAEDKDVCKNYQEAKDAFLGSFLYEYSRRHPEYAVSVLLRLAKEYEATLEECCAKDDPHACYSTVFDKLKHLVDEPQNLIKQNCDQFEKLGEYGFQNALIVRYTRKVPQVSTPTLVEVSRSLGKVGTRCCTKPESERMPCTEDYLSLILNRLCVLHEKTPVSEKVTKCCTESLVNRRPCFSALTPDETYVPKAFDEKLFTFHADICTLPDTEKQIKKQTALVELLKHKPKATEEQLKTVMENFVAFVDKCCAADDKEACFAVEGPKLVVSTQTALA

Broadly, the melting point is the temperature of the solid-liquid transition. With `O=C(O)c1cn(C2CC2)c2cc(N3CCN(Cn4nc(/N=C/c5ccccc5Cl)sc4=S)CC3)c(F)cc2c1=O` [7-(4-((5-(2-chlorobenzylideneamino)-2-thioxo-1,3,4-thiadiazol-3(2H)-yl)methyl)piperazin-1-yl)-1-cyclopropyl-6-fluoro-4-oxo-1,4-dihydroquinoline-3-carboxylic acid], the melting point was 207 to 209 °C. Moreover, the “in vitro anti-inflammatory activity” value on Bovine Serum Albumin (BSA assay, result in words) was “considerable anti-inflammatory effect”. For the same molecule, on Bovine Serum Albumin (pH 6.4, read-out: percentage inhibition of precipitation (protein denaturation)), the inhibition at 100 µg/mL was determined as 90.2%.

Regarding `CC(=O)Oc1ccccc1C(=O)O` [aspirin, reference compound], at Bovine Serum Albumin (100 μg/ml, 0.4% w/v BSA, pH 6.4, 72° C. for 10 minutes, turbidity at 660 nm, relative to negative control, read-out: percentage inhibition of precipitation (protein denaturation)), the inhibition at 100 µg/mL worked out at 96.8%.
